Experimental data taken from article PMC9963398, “Discovery of New Quinolone-Based Diarylamides as Potent B-RAF^V600E/C-RAF Kinase Inhibitors Endowed with Promising In Vitro Anticancer Activity” (International Journal of Molecular Sciences, 2023).

Key:
PC-3 = test: cells; conditions: Homo sapiens
Procedure: (§1) The anticancer screening of target compounds over a full panel of 60 human cancer cell lines was carried out using Sulforhodamine B (SRB) assay at the National Cancer Institute (NCI), Bethesda, Maryland, USA, employing the standard protocol.

MDA-MB-231/ATCC = test: cells; conditions: Homo sapiens
Procedure: as §1

MDA-MB-468 = test: cells; conditions: Homo sapiens
Procedure: as §1

C-RAF = C-RAF (Homo sapiens, UniProt P04049); test: HotSpot kinase assay (RBC), C-RAF; conditions: for IC50: IC50 C-RAF
Excerpt: Reaction Biology Corporation (RBC) Kinase HotSpotSM service was utilized for cell-free biochemical kinase evaluation of the target compounds according to the reported assay protocol [46].

SF-268 = test: NCI-60 five-dose SRB assay; assay type: cell-based; conditions: Homo sapiens; SF-268, CNS cancer, five-dose test
Procedure, shortened: (§2)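 Compounds went through the NCI's full 60-cell-line human tumour panel. Growth was measured by sulforhodamine B staining according to the institute's routine procedure.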

HS 578T = test: NCI-60 five-dose SRB assay; assay type: cell-based; conditions: Homo sapiens, Breast cancer, five-dose test
Procedure, shortened: as §2

UACC-257 = test: NCI-60 five-dose SRB assay; assay type: cell-based; conditions: Homo sapiens; UACC-257, Melanoma, five-dose test
Procedure, shortened: as §2

MOLT-4 = test: NCI-60 five-dose SRB assay; assay type: cell-based; conditions: Homo sapiens; MOLT-4, Leukemia, five-dose test
Procedure, shortened: as §2

SNB-75 = test: NCI-60 five-dose SRB assay; assay type: cell-based; conditions: Homo sapiens; SNB-75, CNS cancer, five-dose test
Procedure, shortened: as §2

NCI-H460 = test: NCI-60 five-dose SRB assay; assay type: cell-based; conditions: Homo sapiens; NCI-H460, NSCL cancer, five-dose test
Procedure, shortened: as §2

UACC-62 = test: NCI-60 five-dose SRB assay; assay type: cell-based; conditions: Homo sapiens; UACC-62, Melanoma, five-dose test
Procedure, shortened: as §2

MCF7 = test: NCI-60 five-dose SRB assay; assay type: cell-based; conditions: Homo sapiens; MCF7, Breast cancer, five-dose test
Procedure, shortened: as §2

HOP-92 = test: NCI-60 five-dose SRB assay; assay type: cell-based; conditions: Homo sapiens; HOP-92, NSCL cancer, five-dose test
Procedure, shortened: as §2

SF-295 = test: NCI-60 five-dose SRB assay; assay type: cell-based; conditions: Homo sapiens; SF-295, CNS cancer, five-dose test
Procedure, shortened: as §2

SK-MEL-28 = test: NCI-60 five-dose SRB assay; assay type: cell-based; conditions: Homo sapiens; SK-MEL-28, Melanoma, five-dose test
Procedure, shortened: as §2

KM12 = test: NCI-60 five-dose SRB assay; assay type: cell-based; conditions: Homo sapiens; KM12, Colon cancer, five-dose test
Procedure, shortened: as §2

A549/ATCC = test: NCI-60 five-dose SRB assay; assay type: cell-based; conditions: Homo sapiens, NSCL cancer, five-dose test
Procedure, shortened: as §2

COLO 205 = test: NCI-60 five-dose SRB assay; assay type: cell-based; conditions: Homo sapiens; COLO 205, Colon cancer, five-dose test
Procedure, shortened: as §2

IGROV1 = test: NCI-60 five-dose SRB assay; assay type: cell-based; conditions: Homo sapiens, IGROV-1; IGROV1, Ovarian cancer, five-dose test
Procedure, shortened: as §2

[1] = tested on: NCI-60 human tumor cell lines; test: NCI-60 five-dose testing, ranges over panel or subpanel; assay type: cell-based; conditions: for GI50: Homo sapiens
Procedure: as §1

[2] = tested on: NCI-60 human cancer cell lines; test: NCI-60 single dose (10 µM) testing; assay type: cell-based; conditions: single dose 10 µM
Procedure: Encouraged by the promising results in the cell-free assay, the antiproliferative activity of all final compounds was evaluated by the National Cancer Institute (NCI) in a single dose of 10 µM over a library of 60 human cancer cell lines representing nine cancer types; leukemia, non-small cell lung (NSCL), colon, central nervous system (CNS), melanoma, ovarian, renal, prostate, and breast cancer.

NCI/ADR-RES = test: NCI-60 five-dose SRB assay; assay type: cell-based; conditions: Homo sapiens, Ovarian cancer, five-dose test
Procedure, shortened: as §2

B-RAF^V600K = molecular target: T1, B-RAF^V600K (Homo sapiens, UniProt P15056, V600K); test: HotSpot kinase assay (RBC), B-RAF^V600K; assay type: biochemical; conditions: 10 µM ATP
T1 construct: purchased Reaction Biology Corporation (RBC), Kinase HotSpot service
Procedure: To gain insight into the inhibitory mode of this new array of quinolines, 18a was tested at 1 µM concentration of ATP to compare it with its IC50 at 10 µM (Table 2).

[3] = 10 µM ATP, 10-dose singlicate IC50 mode
[4] = MALME-3M, MDA-MB-435, SK-MEL-2, and UACC-62
[5] = melanoma LOX IMVI, SK-MEL-28, and SK-MEL-5
[6] = NSCL cell lines, range over lines
[7] = colon cancer cell lines, range over lines

Sequence of C-RAF (P04049 whole entry): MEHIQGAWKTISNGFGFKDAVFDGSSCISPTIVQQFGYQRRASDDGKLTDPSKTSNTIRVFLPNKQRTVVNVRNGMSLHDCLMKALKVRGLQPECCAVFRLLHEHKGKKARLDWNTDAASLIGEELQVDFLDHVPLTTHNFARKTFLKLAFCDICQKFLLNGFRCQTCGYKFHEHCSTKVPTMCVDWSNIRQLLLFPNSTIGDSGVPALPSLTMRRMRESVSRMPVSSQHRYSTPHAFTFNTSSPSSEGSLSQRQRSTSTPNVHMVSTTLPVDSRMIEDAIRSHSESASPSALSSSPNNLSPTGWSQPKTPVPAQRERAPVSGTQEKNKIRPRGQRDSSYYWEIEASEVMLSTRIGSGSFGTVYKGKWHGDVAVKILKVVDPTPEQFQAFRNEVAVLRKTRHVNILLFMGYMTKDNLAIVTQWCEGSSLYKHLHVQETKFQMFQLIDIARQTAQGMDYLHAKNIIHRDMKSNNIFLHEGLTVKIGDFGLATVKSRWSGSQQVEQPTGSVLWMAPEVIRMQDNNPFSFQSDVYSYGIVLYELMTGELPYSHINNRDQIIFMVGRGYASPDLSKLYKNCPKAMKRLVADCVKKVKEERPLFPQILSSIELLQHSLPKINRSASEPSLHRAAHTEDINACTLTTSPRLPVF
T1 sequence (P15056 whole entry V600K): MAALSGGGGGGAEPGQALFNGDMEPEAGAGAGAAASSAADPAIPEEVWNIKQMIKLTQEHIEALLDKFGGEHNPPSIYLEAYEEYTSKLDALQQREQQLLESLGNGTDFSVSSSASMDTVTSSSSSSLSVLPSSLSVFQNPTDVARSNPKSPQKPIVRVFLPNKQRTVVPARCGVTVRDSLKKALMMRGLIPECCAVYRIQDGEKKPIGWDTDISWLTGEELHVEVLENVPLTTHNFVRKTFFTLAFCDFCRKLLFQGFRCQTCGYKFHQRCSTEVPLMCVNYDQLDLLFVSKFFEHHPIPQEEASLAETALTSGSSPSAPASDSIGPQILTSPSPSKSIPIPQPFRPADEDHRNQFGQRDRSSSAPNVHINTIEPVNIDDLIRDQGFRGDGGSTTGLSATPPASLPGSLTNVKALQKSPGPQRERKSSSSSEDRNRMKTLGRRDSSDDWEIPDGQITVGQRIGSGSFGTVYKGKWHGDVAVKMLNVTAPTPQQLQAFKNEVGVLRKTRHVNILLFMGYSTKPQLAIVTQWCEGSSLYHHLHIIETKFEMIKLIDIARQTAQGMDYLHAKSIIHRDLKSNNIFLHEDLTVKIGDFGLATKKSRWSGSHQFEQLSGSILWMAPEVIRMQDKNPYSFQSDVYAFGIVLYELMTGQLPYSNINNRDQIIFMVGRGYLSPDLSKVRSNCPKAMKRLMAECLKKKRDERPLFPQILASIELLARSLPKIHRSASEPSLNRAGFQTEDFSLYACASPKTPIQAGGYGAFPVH

| SMILES | GI50 (PC-3) | GI50 (MDA-MB-231/ATCC) | GI50 (MDA-MB-468) | IC50 (C-RAF; [3]) | GI50 (SF-268) | GI50 (HS 578T) | GI50 (UACC-257) | GI50 (MOLT-4) | GI50 (SNB-75) | GI50 (NCI-H460) | GI50 (UACC-62) | GI50 (MCF7) | GI50 (HOP-92) | GI50 (SF-295) | GI50 (SK-MEL-28) | GI50 (KM12) | GI50 (A549/ATCC) | GI50 (COLO 205) | GI50 (IGROV1) | growth percent [2, 4] | further results |
| --- | --- | --- | --- | --- | --- | --- | --- | --- | --- | --- | --- | --- | --- | --- | --- | --- | --- | --- | --- | --- | --- |
| COc1ccc2nc(Nc3cccc(NC(=O)c4ccc(CN5CCN(C)CC5)c(C(F)(F)F)c4)c3)ccc2c1 [Compound 16a, N-(3-((6-methoxyquinolin-2-yl)amino)phenyl)-4-((4-methylpiperazin-1-yl)methyl)-3-(trifluoromethyl)benzamide] | 2.9 µM | 1.84 µM | 1.56 µM | 0.103 ± 0.00265 µM | 5.2 µM | 4.14 µM | 4.35 µM | 1.63 µM | 0.684 µM | 1.88 µM | 6.45 µM | 1.37 µM | 1.36 µM | 3.41 µM | 5.33 µM | 4.05 µM | 4.36 µM | 5.78 µM | 6.22 µM | – | better kinase inhibition activity compared to 14a, C-RAF (C-RAF; ratio of IC50 versus 14a): 1.5 fold |
| CN1CCN(Cc2ccc(C(=O)Nc3cccc(Nc4ccc5c(O)cccc5n4)c3)cc2C(F)(F)F)CC1 [Compound 17a, N-(3-((5-hydroxyquinolin-2-yl)amino)phenyl)-4-((4-methylpiperazin-1-yl)methyl)-3-(trifluoromethyl)benzamide] | 2.53 µM | 1.62 µM | 1.62 µM | 0.095 ± 0.0173 µM | 3.81 µM | 2.96 µM | 1.92 µM | 1.86 µM | 1.85 µM | 2.19 µM | 1.73 µM | 1.74 µM | 1.32 µM | 1.65 µM | 1.77 µM | 2.3 µM | 4.5 µM | 1.99 µM | 4.7 µM | less than -90 | GI50 ([1]; MOLT-4, all leukemia cell lines, except MOLT-4): > 2 µM; growth percent [2, 5]: −100; GI50 (NCI/ADR-RES): 3.45 µM |
| CN1CCN(Cc2ccc(C(=O)Nc3cccc(Nc4ccc5cc(O)ccc5n4)c3)cc2C(F)(F)F)CC1 [Compound 18a, N-(3-((6-hydroxyquinolin-2-yl)amino)phenyl)-4-((4-methylpiperazin-1-yl)methyl)-3-(trifluoromethyl)benzamide] | 4.68 µM | 2.54 µM | 2.23 µM | 0.0676 ± 0.0051 µM | 10.4 µM | 4.17 µM | 7.35 µM | 3.52 µM | 0.656 µM | 3.84 µM | 15.4 µM | 2.46 µM | 3.39 µM | 2.33 µM | 1.79 µM | 3.16 µM | 8.7 µM | 10.2 µM | 16.6 µM | less than -90 | IC50 (B-RAF^V600K): < 0.00508 µM; GI50 ([1]; LOX IMVI, MALME-3M, and SK-MEL-28): 1.59 to 1.79 µM; GI50 [1, 6]: 3.39 to 17.8 µM; GI50 [1, 7]: 2.09 to 18.5 µM; GI50 increase relative to 17a ([1]; other melanoma cell lines): 1.37–9.11 fold; growth percent [2, 5]: −100; IC50 (C-RAF; 1 µM ATP): 0.0293 ± 0.009 µM |
| CN1CCCN(Cc2ccc(C(=O)Nc3cccc(Nc4ccc5cc(O)ccc5n4)c3)cc2C(F)(F)F)CC1 [Compound 18b, N-(3-((6-hydroxyquinolin-2-yl)amino)phenyl)-4-((4-methyl-1,4-diazepan-1-yl)methyl)-3-(trifluoromethyl)benzamide] | 13.1 µM | 13.9 µM | 8.88 µM | 0.161 ± 0.0301 µM | 17.3 µM | 14.8 µM | 14.7 µM | 2.05 µM | 1.17 µM | 18 µM | 15.9 µM | 9.83 µM | 10.4 µM | 17.3 µM | 13.9 µM | 14.1 µM | 16.2 µM | 18.5 µM | 17.2 µM | – | GI50 [1, 6]: 3.39 to 17.8 µM; GI50 [1, 7]: 2.09 to 18.5 µM; GI50 ([1]; melanoma cell lines, range over lines): 10.4 to 17.2 µM; effect on cell growth ([2]; LOX IMVI): lethal effect; growth percent ([2]; melanoma SK-MEL-29, SK-MEL-5, and UACC-62): under −90% |
